Numbered stars: 1 amine (or outer) side, 2 acyl side, 3 side chain; on linkers, the order of the positions; unused ones are H or OH. Bridge positions count the residues as written; N and C are the ends. Square brackets hold non-standard residues; d marks the D form. Peptide text beside a SMILES is read from it. Adda = CO[C@@H](Cc1ccccc1)[C@@H](C)/C=C(C)/C=C/[C@H](N[*:1])[C@H](C)C(=O)[*:2]; dAsp(3S-Me) = C[C@H](C(=O)[*:3])[C@@H](N[*:1])C(=O)[*:2]; d(γGlu) = O=C(O)[C@@H](CCC(=O)[*:2])N[*:1]; NMeDha = C=C(NC)C(=O)O
Key:
[1] = molecular target: T1, Serine/threonine-protein phosphatase PP1-gamma catalytic subunit (Homo sapiens, UniProt P36873); assay: Inhibition of Serine/threonine protein phosphatase 1 (PP1) mutants by natural toxins in wild type
Target sequence in this assay (P36873 2-323 limits assumed, stated change not applied): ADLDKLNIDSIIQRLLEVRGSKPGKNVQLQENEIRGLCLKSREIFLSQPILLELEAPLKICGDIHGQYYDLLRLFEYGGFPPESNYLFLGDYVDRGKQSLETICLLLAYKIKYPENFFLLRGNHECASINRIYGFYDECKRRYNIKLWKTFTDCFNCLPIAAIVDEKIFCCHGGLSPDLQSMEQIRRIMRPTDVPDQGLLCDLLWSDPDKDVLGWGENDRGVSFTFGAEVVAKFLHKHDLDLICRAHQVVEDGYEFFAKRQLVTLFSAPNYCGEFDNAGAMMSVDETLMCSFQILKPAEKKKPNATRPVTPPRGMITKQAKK

[2] = Exogenous inhibition concentration of Serine/threonine protein phosphatase 5 (PP5)
[3] = Exogenous inhibition concentration of Serine/threonine protein phosphatase 2A (PP2A)
[4] = Exogenous inhibition concentration of Serine/threonine protein phosphatase 2B (PP2B)
[5] = Exogenous inhibition concentration of Serine/threonine protein phosphatase 2C (PP2C); NI means no inhibition.
[6] = molecular target: Serine/threonine-protein phosphatase PP1-gamma catalytic subunit (Homo sapiens, UniProt P36873, C127S); assay: Inhibition of Serine/threonine protein phosphatase 1 (PP1) mutants by natural toxins in C127S
[7] = molecular target: Serine/threonine-protein phosphatase PP1-gamma catalytic subunit (Homo sapiens, UniProt P36873, D208A); assay: Inhibition of Serine/threonine protein phosphatase 1 (PP1) mutants by natural toxins in D208A
[8] = molecular target: Serine/threonine-protein phosphatase PP1-gamma catalytic subunit (Homo sapiens, UniProt P36873, D220V); assay: Inhibition of Serine/threonine protein phosphatase 1 (PP1) mutants by natural toxins in D220V
[9] = molecular target: Serine/threonine-protein phosphatase PP1-gamma catalytic subunit (Homo sapiens, UniProt P36873, E275R); assay: Inhibition of Serine/threonine protein phosphatase 1 (PP1) mutants by natural toxins in E275R
[10] = molecular target: Serine/threonine-protein phosphatase PP1-gamma catalytic subunit (Homo sapiens, UniProt P36873, H248N); assay: Inhibition of Serine/threonine protein phosphatase 1 (PP1) mutants by natural toxins in H248N
[11] = molecular target: Serine/threonine-protein phosphatase PP1-gamma catalytic subunit (Homo sapiens, UniProt P36873, R221S); assay: Inhibition of Serine/threonine protein phosphatase 1 (PP1) mutants by natural toxins in R221S
[12] = molecular target: Serine/threonine-protein phosphatase PP1-gamma catalytic subunit (Homo sapiens, UniProt P36873, R96A); assay: Inhibition of Serine/threonine protein phosphatase 1 (PP1) mutants by natural toxins in R96A
[13] = molecular target: Serine/threonine-protein phosphatase PP1-gamma catalytic subunit (Homo sapiens, UniProt P36873, Y272F); assay: Inhibition of Serine/threonine protein phosphatase 1 (PP1) mutants by natural toxins in Y272F
[14] = Exogenous inhibition of Serine/threonine protein phosphatase 1 (PP1); set-up: species or system Homo sapiens
[15] = molecular target: Serine/threonine-protein phosphatase PP1-gamma catalytic subunit (Homo sapiens, UniProt P36873, N124D); assay: Inhibition of Serine/threonine protein phosphatase 1 (PP1) mutants by natural toxins in N124D
Jurkat [16] = assay: Inhibition of production of IL-2 secretion in Jurkat cells; format: functional, cell-based; details: Homo sapiens
Jurkat [17] = assay: Inhibition of production of beta-galactosidase thymidine kinase RGA in Jurkat cells; format: functional, cell-based; details: Homo sapiens
Jurkat [18] = assay: Inhibition of production of beta-galactosidase IL-2 RGA in Jurkat cells; format: functional, cell-based; details: Homo sapiens
[19] = Inhibition of microcystin analogues to catalytic subunits of Serine/threonine protein phosphatase 1C
[20] = Exogenous inhibition concentration of Serine/threonine protein phosphatase 2C ([…])
[21] = Exogenous inhibition concentration of Serine/threonine protein phosphatase 4 (PP4)
[22] = Inhibition of growth after 72 hr continuous exposure to test compounds in Ovarian A2780 tumor cell lines; format: functional; details: A2780, 72 h
[23] = Inhibition of growth after 72 hr continuous exposure to test compounds in Osteosarcoma 143B tumor cell lines; format: functional; details: Homo sapiens
[24] = Inhibition of growth after 72 hr continuous exposure to test compounds in Ovarian ADDP tumor cell lines; format: functional
[25] = molecular target: T1, Serine/threonine-protein phosphatase PP1-gamma catalytic subunit; assay: Inhibition of Serine/threonine protein phosphatase 1 by anhydride modified Cantharidin analogues
Target sequence in this assay (P36873 whole entry): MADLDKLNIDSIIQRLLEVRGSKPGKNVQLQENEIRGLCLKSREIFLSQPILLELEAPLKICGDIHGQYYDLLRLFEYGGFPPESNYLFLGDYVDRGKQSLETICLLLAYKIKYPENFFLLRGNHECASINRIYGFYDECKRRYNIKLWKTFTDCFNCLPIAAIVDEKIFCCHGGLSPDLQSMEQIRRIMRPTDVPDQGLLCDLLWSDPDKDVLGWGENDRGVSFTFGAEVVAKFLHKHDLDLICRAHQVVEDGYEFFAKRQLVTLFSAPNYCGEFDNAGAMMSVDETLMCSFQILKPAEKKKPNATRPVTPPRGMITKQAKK

[26] = Inhibition of growth after 72 hr continuous exposure to test compounds in Colon HCT 116 tumor cell lines; format: functional; details: Homo sapiens, HCT-116, 72 h
[27] = Inhibition of growth after 72 hr continuous exposure to test compounds in colon HT-29 tumor cell lines; format: functional; details: Homo sapiens, HT-29, 72 h

Chain of Serine/threonine-protein phosphatase PP1-gamma catalytic subunit (Homo sapiens, UniProt P36873, E275R) (P36873 2-323 E275R limits assumed): as the sequence (P36873 2-323 limits assumed, stated change not applied) above, with E274R counted along it
Chain of Serine/threonine-protein phosphatase PP1-gamma catalytic subunit (Homo sapiens, UniProt P36873, Y272F) (P36873 2-323 Y272F limits assumed): as the sequence (P36873 2-323 limits assumed, stated change not applied) above, with Y271F counted along it
Chain of Serine/threonine-protein phosphatase PP1-gamma catalytic subunit (Homo sapiens, UniProt P36873, R221S) (P36873 2-323 R221S limits assumed): as the sequence (P36873 2-323 limits assumed, stated change not applied) above, with R220S counted along it
Chain of Serine/threonine-protein phosphatase PP1-gamma catalytic subunit (Homo sapiens, UniProt P36873, D208A) (P36873 2-323 D208A limits assumed): as the sequence (P36873 2-323 limits assumed, stated change not applied) above, with D207A counted along it
Chain of Serine/threonine-protein phosphatase PP1-gamma catalytic subunit (Homo sapiens, UniProt P36873, N124D) (P36873 2-323 N124D limits assumed): as the sequence (P36873 2-323 limits assumed, stated change not applied) above, with N123D counted along it
Chain of Serine/threonine-protein phosphatase PP1-gamma catalytic subunit (Homo sapiens, UniProt P36873, H248N) (P36873 2-323 H248N limits assumed): as the sequence (P36873 2-323 limits assumed, stated change not applied) above, with H247N counted along it
Chain of Serine/threonine-protein phosphatase PP1-gamma catalytic subunit (Homo sapiens, UniProt P36873, D220V) (P36873 2-323 D220V limits assumed): as the sequence (P36873 2-323 limits assumed, stated change not applied) above, with D219V counted along it
Chain of Serine/threonine-protein phosphatase PP1-gamma catalytic subunit (Homo sapiens, UniProt P36873, R96A) (P36873 2-323 R96A limits assumed): as the sequence (P36873 2-323 limits assumed, stated change not applied) above, with R95A counted along it
Chain of Serine/threonine-protein phosphatase PP1-gamma catalytic subunit (Homo sapiens, UniProt P36873, C127S) (P36873 2-323 C127S limits assumed): as the sequence (P36873 2-323 limits assumed, stated change not applied) above, with C126S counted along it

With `COC[C@@H]([C@H](O)[C@H](O)C(=O)NCC[C@H](C)c1nc(/C=C/C[C@@H]2O[C@]3(C[C@@H](O)[C@@H]2C)O[C@H]([C@H](C[C@H](O)[C@H](C)[C@H](O)[C@H](C)/C=C(C)/C(C)=C/C=C/C(C)=C\C#N)OC)[C@H](OP(=O)(O)O)C3(C)C)co1)N(C)C` [CALYCULIN A] the IC50 [1] was 450 pM, the IC50 [2] was < 0.003 µM and the IC50 [3] was 0.0002 µM. The IC50 [4] was > 10000 µM, the IC50 [5] was “no inhibition” and the IC50 [6] was 0.0022 µM. The IC50 [7] was > 0.5 µM, the IC50 [8] was 140 pM and the IC50 [9] was 400 pM. The IC50 [10] was > 0.5 µM, the IC50 [11] was > 0.5 µM and the IC50 [12] was 0.058 µM. For the same compound, the IC50 [13] was 0.048 µM, the IC50 [14] was 0.0003 µM and the IC50 [15] was > 0.5 µM.
In the case of `C/C=C/C[C@@H](C)[C@@H](O)[C@H]1C(=O)N[C@@H](CC)C(=O)N(C)CC(=O)N(C)[C@@H](CC(C)C)C(=O)N[C@@H](C(C)C)C(=O)N(C)[C@@H](CC(C)C)C(=O)N[C@@H](C)C(=O)N[C@H](C)C(=O)N(C)[C@@H](CC(C)C)C(=O)N(C)[C@@H](CC(C)C)C(=O)N(C)[C@@H](C(C)C)C(=O)N1C` [CYCLOSPORINE], the IC50 (Jurkat [16]) is reported as 0.007 µM, the IC50 (Jurkat [17]) is reported as > 1 µM and the IC50 (Jurkat [18]) is reported as 0.008 µM.
With `CO[C@@H](Cc1ccccc1)[C@@H](C)/C=C(C)/C=C/[C@@H]1NC(=O)[C@H](C)NC(=O)[C@@H](C)[C@H](C(=O)O)CC(=O)[C@H](CC(C)C)NC(=O)[C@@H](C)NC(=O)CN(C2CCCCC2)C(=O)CC[C@H](C(=O)O)NC(=O)[C@H]1C` the IC50 [19] was 0.0008 µM.
With `CO[C@H]([C@H](O)CC(=O)[C@@H](C)[C@@H](O)CC[C@@H](C)[C@@H]1O[C@]2(CC[C@@H](C)[C@H](CC[C@H](C)C(C)=O)O2)CC[C@@H]1C)[C@H](OC(=O)C[C@@H](O)C1=C(C)C(=O)OC1=O)C(C)C` [TAUTOMYCIN] the IC50 [3] was 0.0007 µM, the IC50 [20] was 70000 µM and the IC50 [5] was “no inhibition”. It also gave an IC50 [14] of 0.0007 µM.
In the case of `C=C1C(=O)N[C@H](CN)C(=O)N[C@@H](CC(C)C)C(=O)C[C@@H](C(=O)O)[C@H](C)C(=O)N[C@@H](C)C(=O)N[C@@H](/C=C/C(C)=C/[C@H](C)[C@H](Cc2ccccc2)OC)[C@H](C)C(=O)N[C@@H](C(=O)O)CCC(=O)N1C`, the IC50 [19] is reported as 0.003 µM.
With `C=C1C(=O)N[C@H](C)C(=O)N[C@@H](CC(C)C)C(=O)N[C@@H](C(=O)O)[C@H](C)C(=O)N[C@@H](CCCNC(=N)N)C(=O)N[C@@H](/C=C/C(C)=C/[C@H](C)[C@H](Cc2ccccc2)OC)[C@H](C)C(=O)N[C@@H](C(=O)O)CCC(=O)N1C` [MICROCYSTIN-LR] (R[Adda][d(γGlu)][NMeDha][dA]L[dAsp(3S-Me)]-OH; lactam N-7) the IC50 [1] was 20 pM, the IC50 [2] was > 0.001 µM and the IC50 [5] was “no inhibition”. For the same compound, the IC50 [6] was 0.00056 µM, the IC50 [7] was 0.0019 µM and the IC50 [8] was 20 pM. The IC50 [9] was 10 pM, the IC50 [10] was 0.035 µM and the IC50 [11] was 0.029 µM. It also gave an IC50 [12] of 0.035 µM, an IC50 [13] of 0.0008 µM and an IC50 [21] of 8 pM. It also gave an IC50 [15] of 0.2 µM.
`CN(C)C(=O)C1C(C(=O)O)C2CC[C@H]1O2` (stereo partly drawn) gave an IC50 (Jurkat [16]) of 5 µM, an IC50 (Jurkat [17]) of 100 µM and an IC50 (Jurkat [18]) of 4.7 µM.
Compound `CO[C@@H](Cc1ccccc1)[C@@H](C)/C=C(C)/C=C/[C@@H]1NC(=O)[C@H](C)NC(=O)[C@@H](C)[C@H](C(=O)O)CC(=O)[C@H](CC(C)C)NC(=O)[C@@H](C)NC(=O)CN(C)C(=O)CC[C@H](C(=O)O)NC(=O)[C@H]1C` has an IC50 [19] of 0.0008 µM.
Work on `C=C1C(=O)N[C@H](C)C(=O)N[C@@H](CC2CCCCC2)C(=O)C[C@@H](C(=O)O)[C@H](C)C(=O)N[C@@H](C)C(=O)N[C@@H](/C=C/C(C)=C/[C@H](C)[C@H](Cc2ccccc2)OC)[C@H](C)C(=O)N[C@@H](C(=O)O)CCC(=O)N1C` yielded an IC50 [19] of 0.00052 µM.
In the case of `COC1OC(=O)[C@H]2[C@@H]1[C@@H]1CC[C@H]2O1` (stereo partly drawn), the GI50 [22] is reported as 538 µM, the GI50 [23] is reported as > 1000 µM and the GI50 [24] is reported as 323 µM. The IC50 [25] was > 1000 µM, the GI50 [26] was 143 µM and the GI50 [27] was 28 µM.

From ChEMBL document CHEMBL1135579, “Serine-threonine protein phosphatase inhibitors: development of potential therapeutic strategies” (J Med Chem, 2002)
